Results on two compounds are retold here after patent publication US6503869B1, “Enhanced post-emergent herbicidal compositions containing ammonium salts and methods of using the same” (Falcon Lab LLC, priority 2000, dated 2003).

One experiment deals with fescue. Nature of the experiment: Field study on fescue suppression. It counts as in vivo. The following applies: one week after spraying; 0.2% ammonium pelargonate alone; 15 gpa. An excerpt: A field study was made on fescue suppression (fescue thatch, 9-10 in. height, blade length 10-16 in.) using a 0.2% by weight solution of ammonium pelargonate alone, glyphosate ammonium salt alone (ROUNDUP DF®) at application rates of both 0.21 lb. active ingredient/acre (ai/A) and 0.42 lb. ai/A and a combination of 0.2% ammonium pelargonate with the same rates of ROUNDUP DF. The spray rate was 15 gal./acre (gpa) in all cases. One week after spraying, the following results were obtained: […]

In another experiment the test system is weeds and grass. Nature of the experiment: Time to visual phytotoxic effect after application to weeds (general statement). It counts as in vivo. The following applies: without ammonium pelargonate; 'or longer'. The text has this:
As an example, weed and grass necrosis may approach 100% within 24 hrs. with glyphosate in combination with ammonium pelargonate, compared to 3-4 days or longer without the ammonium pelargonate.
Unwanted vegetation may be killed by applying to the locus of the vegetation the herbicidal composition of the invention. The herbicidal composition of the invention may be contacted with the unwanted vegetation by spraying or otherwise distributing the composition onto the foliage in accordance with the manufacturers' directions of the post-emergent herbicide [to which has been added the compound of formula (I)]. […] Most importantly, the invention dramatically reduces the kill time. Leaves of vegetation sprayed with herbicidal compositions of the invention usually start to shrivel or turn brown within hours of a single application. Necrosis is evident, usually in 24 hours. Typically unwanted vegetation is dead in less than 24 hours compared to 3 to 4 days when the post-emergent is solely used. Since use of the compound of formula (I) decreases the amount of post-emergent herbicide required, the invention dramatically reduces costs.

Consider `CCCCCCCCC(=O)O.N` [Ammonium Pelargonate, ammonium pelargonate], for which the necrosis in the experiment with fescue is 0%.
As to `O=C(O)CNCP(=O)(O)O` [glyphosate], the “time until weed and grass necrosis may approach 100%” value with weeds and grass is 3 to 4 days.
